Measurements: patent publication EP0567613B1, “COMPOSITIONS FOR THERAPY AND PREVENTION OF CANCER” (The Government of the United States of America, as …, priority 1991, dated 1993)

Tests used:
[1] = system: Leukemia K562; assay: Tumor cell growth / proliferation; conditions: K562 cell line
[2] = system: premalignant 10T1/2 cells; assay: cells; conditions: for Differentiation at 1 mM: sodium salts; for DC50: Mus musculus, Adipocyte, read-out: DC50, concentration of compound causing 50% differentiation; for adipocyte conversion: glutamine antagonists
Method: C. Quantitation of adipocytosis. Lipids stained with Oil-Red O were extracted with butanol, and the optical density at 510 nm determined.
Lower: Quantitation of adipocytosis. Cells were fixed with 37% formaldehyde and stained with Oil-Red O. The stained intracellular lipid was extracted with butanol, and the optical density was determined using a Titertek Multiskan MC, manufactured by Flow Laboratories, at a wavelength 510 nm.

[3] = system: 4C8a10 cells (revertants of Haras-transformed NIH3T3 fibroblasts); assay: Tumor formation of cells pretreated in culture and injected s.c. into athymic nude mice; format: in vivo; conditions: cells pretreated with 5-AzadC 0.1 µM, after 3 weeks
Source text: One-two weeks later the cells were transplanted subcutaneously into athymic mice.
(§1) The experimental model involved nonmalignant 4C8a10 cells (revertants of Haras-transformed NIH3T3 fibroblasts). […]
Frederick Cancer Research Facility).

[4] = system: 4C8a10 cells; assay: Malignant phenotype in culture / growth on matrigel; format: cell-based
Method: as §1
^b Cells were plated on top of matrigel (reconstituted basement membrane) and observed for malignant growth pattern, i.e., active replication, development of characteristic processes, and invasion.

[5] = system: C3H 10T1/2 Cells; assay: Tumorigenicity of treated cells in athymic mice; conditions: time 8 weeks
Method: Premalignant cells (3-4 x 10^5) were plated in 75 cm^2 dishes and 5-AzadC 0.1 µM was added to the growth medium at 20 and 48 hrs after plating. The cells were then subcultured in the absence of the nucleoside analog for an additional seven weeks. […] For the tumorigenicity assay, 4-5 week-old female athymic nude mice were inoculated s.c. with 1 x 10^6 cells and observed for tumor growth at the site of injection.

[6] = system: 10T1/2 cells; assay: Neoplastic foci formation in culture
Source text: […] The cells were then subcultured in the absence of the nucleoside analog for an additional seven weeks. […] For the tumorigenicity assay, 4-5 week-old female athymic nude mice were inoculated s.c. with 1 x 10^6 cells and observed for tumor growth at the site of injection.

[7] = system: HL-60; assay: Granulocyte differentiation (NBT reduction, morphology) and viability by trypan blue exclusion; conditions: Homo sapiens, HL-60, read-out: Cell viability
Method: The number of NBT positive cells was determined after 4 [solid bars] or 7 days [hatched bar] of treatment. […] Glutamine Starvation (Gln, < 0.06 mM) was as described (18).
The ability of cells to reduce nitroblue tetrazolium (NBT) is indicative of oxidase activity which is characteristic of the more mature forms of human bone marrow granulocytes. NBT reduction thus serves as an indicator of granulocyte differentiation. […] Glutamine starvation (Gln, < 0.06 mM) was as described. […] DON, ACV and HPA are glutamine antagonists.

[8] = system: Erythroleukemia K562 cells; assay: Induction of hemoglobin synthesis (benzidine staining, protein quantitation); conditions: HU 100 µM, seven days
[9] = system: Prostate Adenocarcinoma PC3; assay: Tumor cell growth / proliferation; format: cell-based; conditions: Homo sapiens, PC-3
Method: Studies of depth were performed with two androgenindependent human prostate adenocarcinoma cell lines, PC3 and DU145, established from bone and brain metastases, respectively.

[10] = system: Malignant Melanoma A375; assay: Tumor cell growth / proliferation

**Q.** With `O=C(O)Cc1cc(O)cc(O)c1` as the molecule, how does the toxicity [1] read?
**A.** highly toxic

**Q.** How did the “Differentiation at 1 mM” value [2] turn out when `O=C(O)Cc1cccc2ccccc12` [1-naphthylacetate] was run?
**A.** >95%

**Q.** What about the DC50 [2] of the same molecule?
**A.** < 100 µM

**Q.** For `O=C(O)Cc1ccc(O)cc1O` [2,4-dihydroxyphenylacetate], which toxicity [1] is on record?
**A.** highly toxic

**Q.** Which results are given for `O=C(O)Cc1c(Cl)cccc1Cl` [2,6-dichlorophenylacetate]?
**A.** Differentiation at 1 mM [2]: 75%; DC50 [2]: 500 µM

**Q.** Which results are given for `O=C(O)Cc1cccc(Cl)c1` [3-chlorophenylacetate]?
**A.** Differentiation at 1 mM [2]: 80%; DC50 [2]: 500 µM

**Q.** `O=C(O)Cc1ccc(Cl)cc1` [4-chlorophenylacetate] was tested. Which “Differentiation at 1 mM” value [2] did it give?
**A.** 50%

**Q.** What about the DC50 [2] of the same molecule?
**A.** 1000 µM

**Q.** `O=C(O)Cc1ccc(F)cc1` [4-fluorophenylaceatae] was tested. Which “Differentiation at 1 mM” value [2] did it give?
**A.** 65%

**Q.** And the DC50 [2]?
**A.** 700 µM

**Q.** How did the “Tumor Formation Incidence” value ([3]; 5x10^5 cells per site s.c.) turn out when `Nc1ncn([C@H]2C[C@H](O)[C@@H](CO)O2)c(=O)n1` [5-AzadC, 5-aza-2'-deoxycytidine, reference compound] was run?
**A.** 8/8

**Q.** What about the “Tumor Formation Size, mean (range)” value [3] of the same molecule?
**A.** 11.5 (4-19) mm

**Q.** And the Growth on matrigel ([4]; 5-AzadC 0.1 µM)?
**A.** +

**Q.** What about the “time until malignant conversion evident” value ([4]; transient treatment of premalignant cells) of the same molecule?
**A.** ≤ 2 days

**Q.** And the “Tumors Incidence” value ([5]; 5-AzadC 0.1 µM at 20 and 48 hrs after plating, 1 x 10^6 cells s.c.)?
**A.** 8/8

**Q.** And the “Tumors Diameter” value ([5]; 5-AzadC 0.1 µM)?
**A.** 5.5 ± 2.5 mm ± S.D.

**Q.** What about the “frequency of foci of neoplastically transformed cells” value [6] of the same molecule?
**A.** about 7x10^-4

**Q.** What does the source list for `N[C@H](C(=O)O)[C@@H]1CC(Cl)=NO1` [ACV, acivicin]?
**A.** viability at 1 µg/mL [7]: 63%; viability at 3 µg/mL [7]: 63%; adipocyte conversion [2]: neither glutamine starvation nor by treatment with glutamine antagonists such as DON and ACV resulted in adipocyte conversion

**Q.** Which viability at 25 µg/mL [7] does the source give for `[N-]=[N+]=CC(=O)CC[C@H](N)C(=O)O` [DON, 6-diazo-5-oxo-L-norleucine] here?
**A.** 75%

**Q.** What about the viability at 30 µg/mL [7] of the same molecule?
**A.** 75%

**Q.** And the adipocyte conversion [2]?
**A.** neither glutamine starvation nor by treatment with glutamine antagonists such as DON and ACV resulted in adipocyte conversion

**Q.** `NC(=O)NO` [HU, hydroxyurea, reference compound] was tested. Which “Benzidine Positive Cells” value [8] did it give?
**A.** 17.2%

**Q.** With `Cc1ccc(C(=O)Nc2ccc(S(=O)(=O)O)c3cc(S(=O)(=O)O)cc(S(=O)(=O)O)c23)cc1NC(=O)c1cccc(NC(=O)Nc2cccc(C(=O)Nc3cc(C(=O)Nc4ccc(S(=O)(=O)O)c5cc(S(=O)(=O)O)cc(S(=O)(=O)O)c45)ccc3C)c2)c1` [Suramin, suramin] as the molecule, how does the activity at 75 µg/mL ([9]; Suramin 75 µg/ml) read?
**A.** 58.5%

**Q.** What about the activity at 150 µg/mL ([9]; Suramin 150 µg/ml) of the same molecule?
**A.** 46.5%

**Q.** And the activity at 300 µg/mL ([9]; Suramin 300 µg/ml)?
**A.** 31%

**Q.** And the Growth ([10]; Suramin 38 µg/ml)?
**A.** 78.3 % of control

**Q.** And the Viability ([10]; Suramin 38 µg/ml)?
**A.** > 95%

**Q.** And the Growth ([10]; Suramin 75 µg/ml)?
**A.** 56.8 % of control

**Q.** And the Viability ([10]; Suramin 75 µg/ml)?
**A.** > 95%

**Q.** What about the Growth ([10]; Suramin 150 µg/ml) of the same molecule?
**A.** 38.6 % of control

**Q.** And the Viability ([10]; Suramin 150 µg/ml)?
**A.** 92%

**Q.** And the Growth ([10]; Suramin 300 µg/ml)?
**A.** 26.6 % of control

**Q.** And the Viability ([10]; Suramin 300 µg/ml)?
**A.** 82%
